Results from patent US5573773A, “Stable highly concentrated formulations of fluorescein derivatives” (Ciba Geigy Corporation, priority 1992, dated 1996).
Read-outs that look alike come from different tables or passages of the source.

Legend:
[1] = tested on: human T24 carcinoma cells; experiment: fading of intracellular fluorescein on irradiation in T24 carcinoma cells; type: cell-based
[2] = tested on: human T24 carcinoma cells; experiment: cells; details: read-out: cells killed
Excerpt: The cytoxic action of irradiation (excitation 480 nm) of intracellular fluorescein from FDA is investigated using tissue culture of human T24 carcinoma cells. This is done by fluorometric determination of the intracellular fluorescein concentration under a microscope (excitation 480 nm; emission 520 nm) in single cells and the vitality via the uptake of propidium iodide.

in vitro = details: human, t24 carcinoma cells
Excerpt: (§3) After removal of FDA from the tissue culture medium, the generation of fluorescein from the cells can be measured. […] The intensity of fluorescence of intracellular fluorescein fades when the fluorescein is correspondingly excited. The higher the intracellular concentration of fluorescein at a given irradiation energy, the stonger this fading is: the lower level for a fading effect is 0.004 mmol/l of intracellular fluorescein for 71 mJ/mm^2 and 0.002 mmol/l for 560 mJ/mm^2 (irradiation time 120 seconds).

[3] = tested on: human T24 carcinoma cells; experiment: intracellular uptake and generation of fluorescein from FDA in T24 carcinoma cells by microscopic fluorimetry
Excerpt: as §3

uptake by living cells = type: cell-based; details: living cells; intracellular; read-out: half-life of fluorescein within a cell
Excerpt: (§1) Fluorescein therefore accumulates temporarily in the cells. […] Intensive irradiation reduces the intensity of fluorescein.
(§2) Loading the intracellular space of cells with fluorescein is, however, complicated by the fact that FDA is also hydrolysed by esterases in the extracellular fluid. The amount of FDA available for cell loading is thereby reduced. For reproducible clinical use it is therefore advisable to lower the concentration of extracellular esterases. This is conveniently done by washing the environment of the particular area which it is desired to treat. A further problem may arise from the fact that the FDA diffuses away from the site of actual use and, as a consequence thereof, is also taken up by cells that are not to be treated at all. This problem can be countered by optimising the local application of FDA as well as the defined irradiation, typically by using a particularly well focussed beam of light.

living cells = experiment: uptake by living cells; type: cell-based
Excerpt: as §1, §2

[4] = tested on: human T24 carcinoma cells; experiment: intracellular uptake of fluorescein from FDA dissolved in viscous medium Hymecel; type: cell-based
Excerpt: Eight minutes after removal of the viscous solution and washing the cells, the intracellular fluorescein concentration is 0.004 to 0.005 mmol/l after 0.01 mmol/l of FDA, 0.007 to 0.009 mmol/l after 0.02 mmol/l of FDA and 0.019 mmol/l after 0.04 mmol/l of FDA.

rabbit lens epithelium = experiment: cytotoxic effect of irradiation of intracellular fluorescein in vivo on rabbit lens epithelium
Experimental: The cytotoxic effect of the irradiation of intracellular fluorescein with […] laser light (argon) is investigated in vivo on rabbit lens epithelium. This is done by first treating both rabbit eyes with Voltaren® eye drops (3 times over 24 hours) and expanding the pupillae with a mydriatic. The rabbits are operated on under a full anaesthetic. After a small incision of the cornea, the anterior chamber of the eye is thoroughly rinsed for 1 minute with sodium chloride solution (to remove natural chamber water), then slowly rinsed with 5 ml of FDA solution (1 ml/min) and filled, thereafter kept for a further 5 minutes and once more rinsed with sodium chloride solution for 1 minute (to remove excess FDA solution). While washing the chamber with FDA solution, sodium chloride solution is dropped onto the cornea (for rapid dilution and removal of the FDA solution flowing back from the chamber). […] Finally, irradiation (0.92 W to 0.64 W) is carded out for 30 seconds, the circular irradiation surface on the plane of the lens being 95 mm^2 (11 mm diameter). […] All investigated irradiation doses (291 mJ/mm^2 to 19 mJ/mm^2) were effective.

T4 tumour cells = details: over 10 minutes
Excerpt: The higher the extracellular concentration of FDA, the higher the resultant intracellular concentration of fluorescein.

rabbit eye cornea = experiment: cytotoxic effect of irradiation of intracellular fluorescein in vivo on rabbit eye cornea; details: for lowest effective energy for fading effect: 488 nm argon laser
Experimental: The cytotoxic effect of the irradiation of intracellular fluorescein with 488 nm laser light (argon) is investigated in vivo on rabbit eye cornea. FDA solution is dropped on to the cornea for 10 minutes, followed by washing with physiological sodium chloride solution. Irradiation is afterwards effected. The intensity of florescence on the cornea rises sharply during this time, then slowly falls to zero over about 5 hours after washing. Irradiation of the fluorescing cornea results in black specks the size of which matches the area irradiated by the laser. The lowest effective energy for this fading effect is about 2.4 J/mm^2 with 0.01 mmol/l of FDA and 0.11 J/mm^2 with 0.02 mmol/l of FDA. […] The lower limit of the irradiation energy for this cytotoxic effect is up to 0.38 mJ/mm^2 (5 seconds and 20 seconds) using 0.02 mmol/l of FDA.

O=C1OC2(c3ccc(O)cc3Oc3cc(O)ccc32)c2ccccc21 [fluorescein]
fading on irradiation for observation ([1]; 0.1 mW/mm^2, 1 to 10 minutes): no measurable fading | lower level of intracellular fluorescein for a fading effect ([1]; 71 mJ/mm^2, irradiation time 120 seconds): 0.004 mmol/L | lower level of intracellular fluorescein for a fading effect ([1]; 560 mJ/mm^2, irradiation time 120 seconds): 0.002 mmol/L | cytotoxicity at 7 µM ([2]; 15 s): 50% | cytotoxicity at 13 µM ([2]; 15 s): 50% | cytotoxicity at 3 µM ([2]; 2 min): 50% | cytotoxicity at 5 µM ([2]; 2 min): 50% | half-life (in vitro): 10 to 25 min | kinetics order of exclusion of fluorescein from the individual cells ([3]; after removal of FDA from the medium): first order kinetics | uptake of pure fluorescein added to the cells ([3]; pure fluorescein): No uptake can be observed | half-life (uptake by living cells): ~15 min | uptake by living cells (living cells): virtually not taken up by living cells

CC(=O)Oc1ccc2c(c1)Oc1cc(OC(C)=O)ccc1C21OC(=O)c2ccccc21 [FDA, fluorescein diacetate]
intracellular fluorescein concentration ([4]; 0.04 mmol/l of FDA in Hymecel, 8 minutes after removal and washing): 0.019 mmol/L | increase in intracellular fluorescein concentration and plateau values versus aqueous medium ([4]; FDA in Hymecel): approximately match those after incubation of the cells in aqueous medium | effectiveness of investigated irradiation doses (rabbit lens epithelium; 291 mJ/mm^2 to 19 mJ/mm^2): effective | fluorescence of the cornea surface near the incision site (rabbit lens epithelium; FDA solution in anterior chamber): fluoresces minimally | fluorescence of the lens surface after irradiation (rabbit lens epithelium; after irradiation): no longer fluoresces | fluorescence of the anterior lens capsule (rabbit lens epithelium; before irradiation, epifluorescent stereomicroscope): constant marked increase of fluorescence | histological evaluation of lens in irradiation field (rabbit lens epithelium; sacrificed about 18 hours later, irradiation 30 seconds): total necrosis of the lens epithelium and microscopically unchanged basal membrane, pyknotic nuclear residues and edematous swelling of the anterior subcapsular area of the lens | intracellular fluorescein concentration ([3]; 0.0001 mmol/l of FDA): no longer measurable | intracellular fluorescein concentration ([3]; 0.001 mmol/l of FDA, after 10 minutes): 0.004 mmol/L | intracellular fluorescein concentration ([3]; 0.01 mmol/l of FDA, after 10 minutes): 0.01 mmol/L | intracellular fluorescein concentration ([3]; 0.02 mmol/l of FDA, after 10 minutes): 0.015 mmol/L | intracellular fluorescein concentration ([3]; 0.04 mmol/l of FDA, after 10 minutes): 0.017 mmol/L | duration of linear rise of intracellular fluorescein concentration ([3]; FDA added to medium): about 4 minutes | time to approximately plateau values of intracellular fluorescein concentration ([3]; FDA added to medium): about 10 minutes | plateau concentration of intracellular fluorescein (T4 tumour cells; 1 μm FDA solution): 25 μm | plateau concentration of intracellular fluorescein (T4 tumour cells; 100 μm FDA solution): 70 μm | uptake by living cells (living cells): readily taken up by most living cells | lowest effective energy for fading effect (rabbit eye cornea; 0.01 mmol/l of FDA): about 2.4 J/mm^2 | lower limit of irradiation energy for cytotoxic effect (rabbit eye cornea; 0.02 mmol/l of FDA, 5 seconds and 20 seconds): up to 0.38 mJ/mm^2 | lowest effective energy for fading effect (rabbit eye cornea; 0.02 mmol/l of FDA): 0.11 J/mm^2 | time for cornea fluorescence to fall to zero after washing (rabbit eye cornea; FDA solution dropped on cornea for 10 minutes): about 5 hours | histology of irradiated cornea (black specks) (rabbit eye cornea; irradiated fluorescing cornea): areas of dead epithelial cells in the outermost layer of the cornea
